Test results published in US9592212B2, “Use of pan-PPAR agonists for treatment of tauopathies” (Cornell University, priority 2011, dated 2017).

Tests used:
P301S mice = assay: Mitochondria characterisation in brains of P301S and wild-type mice; assay type: in vivo
Description: Animals were generated by breeding P301S transgenic male mice with wild-type female mice obtained from Jackson Laboratory (Bar Harbor, Me., USA). Offspring were genotyped by PCR of tail DNA. P301S transgenic mice and their wild-type littermates were randomly assigned to receive either control diet (LabDiet 5002) or 0.5% bezafibrate diet (Sigma, St. Louis, Mo., USA) from 1 to 10 months of age ad libitum. The chow was pelleted by Purina-Mills (Richmond, Ind., USA). Behavioral analyses were performed at 5, 7, and 9 months of age. Histopathological and biochemical analyses were conducted at 10 months of age on the same animals. All experiments were approved by the Weill Cornell Medical College Institutional Animal Care and Use Committee.
Dissected, non-perfused frontal lobe samples (˜30-55 mg) were stored frozen at ? 80° C. until assaying. Before assays, tissue samples were thawed on ice and homogenized with Dounce-type 2 ml homogenizer (glass vessel/glass pestle). […]
The protein lysates containing equal amounts of protein were separated by SDS-PAGE, electroblotted onto a nitrocellulose membrane (BioRad, Hercules, Calif., USA), and immunoreacted with an appropriate primary antibody (see below) followed by HRP-conjugated secondary antibody (Kierkegaard Perry Labs Inc., Gaithersburg, Md., USA). […] Quantitative analysis was performed using NIH “ImageJ” software. […]

R6/2 mice [1] = assay: Behavioral tests (grip strength, open field, rotarod) in R6/2 mice; assay type: in vivo; conditions: 0.5% bezafibrate diet
Description: (§1) All experiments were conducted within National Institutes of Health guidelines for animal research and were approved by the Weill Cornell Medical College Animal Care and Use Committee. The animals were kept on a 12-hr light/dark cycle, with food and water available ad libitum. Mice were fed standard diet containing 0.5% bezafibrate or standard diet (Purina-Mills Richmond, Ind., USA), starting right after weaning up to 3 months of age.
Experimenters were blind to the genotype during all testing, at least until the appearance of a robust behavioral phenotype in the mutants. We utilized a behavioral testing battery consisting of: rotarod, grip strength and open field. […] The latency to fall from the rod was recorded. Exploratory behavior was recorded in the open-field (45 cm×45 cm; height: 20 cm), for 10 min per day using a video tracking system (Ethovision 3.0, Noldus Technology, Attleborough, Mass., USA) and averaged over 3 days. […]
To assess muscle strength we tested the R6/2 mice and their wild-type littermates on the grip strength test (FIG. 2A). […] Motor coordination was assessed by performance on an accelerated rotarod apparatus. Latency to fall was recorded for 3 trials per weekly assessment and scores were averaged (FIG. 2C).

[2] = used in man for more than 25 years; cited from earlier work
R6/2 mice [3] = assay: Survival of R6/2 mice (Kaplan-Meier); assay type: in vivo; conditions: 0.5% bezafibrate diet
Description: as §1
R6/2 mice normally die prematurely as compared to their wild-type littermates, between the age of 70-91 days (Mangiarini et al. 1996). Symptomatic mice approaching the disease endstage were examined twice daily (morning and late afternoon) to assess when they reached end-stage of the disease, as assessed by the righting reflex or failure to eat moistened chow placed beside mice over a 24 hour period. At this point, mice were euthanized by CO2 inhalation. This day was recorded as time of death of the mice. […] In our hands, the R6/2 mice survived to 77-88 days of age, and the longest living mouse died at 90 days of age (mean=84+1.2 days). Bezafibrate treated R6/2 mice lived 20% longer than the R6/2 mice on a standard diet (mean=102+3.2 days) (FIG. 2D).

N171-82Q mice = conditions: cited from earlier work

Compound	mitochondrial enzymes and PGC1α in brain (P301S mice)	increase in grip strength compared to untreated R6/2 mice (R6/2 mice [1])	tolerability in man [2]	increase in survival vs R6/2 mice on standard diet (R6/2 mice [3]) [%]	mean survival (R6/2 mice [3]; standard diet mean=84+1.2 days)	increase in survival (N171-82Q mice) [%]
CC(C)(Oc1ccc(CCNC(=O)c2ccc(Cl)cc2)cc1)C(=O)O [bezafibrate]	no effect	up to 2 fold	well-tolerated with few side effects	20	102+3.2 days	
CN(CC(=O)O)C(=N)N [creatine]						19
